Measurements from PubChem BioAssay AID1996.
Values after ≈ are worked out from the molar mass of the structure shown.

details: buffer; pH 7.4; 200.0 µM

Question: With `Cc1onc(-c2c(Cl)cccc2Cl)c1C(=O)c1ccccc1` as the compound, how does the solubility kinetic read?
Answer: 5.1 µg/mL (≈ 15.4 µM)

Question: With `COc1cccc2cc(C(=O)NC3CC4CCC3C4)oc12` (stereo not given) as the compound, how does the solubility kinetic read?
Answer: 31.6 µg/mL (≈ 111 µM)

Question: With `Cc1ccc(NC(=O)C2CCCO2)c(Br)c1` (stereo not given) as the compound, how does the solubility kinetic read?
Answer: 37.5 µg/mL (≈ 132 µM)

Question: For `Cc1ccccc1OCC(O)CN1C(=O)c2ccccc2C1=O` (stereo not given), which solubility kinetic is on record?
Answer: 41.7 µg/mL (≈ 134 µM)

Question: For `CC1CCCC(NC(=O)COC(=O)c2ccc([N+](=O)[O-])o2)C1C` (stereo not given), which solubility kinetic is on record?
Answer: 18.4 µg/mL (≈ 56.7 µM)

Question: For `Cc1ccc(N=C2C(=O)Nc3ccccc32)cc1`, which solubility kinetic is on record?
Answer: 30.5 µg/mL (≈ 129 µM)

Question: With `Cc1ccc(C)c(OCCC(=O)Nc2ccccc2C(=O)NC2CC2)c1` as the compound, how does the solubility kinetic read?
Answer: 4.2 µg/mL (≈ 11.9 µM)

Question: Which solubility kinetic does the source give for `O=C(NCC1CCCO1)c1cccc(NC(=O)c2cccs2)c1` (stereo not given) here?
Answer: > 49.6 µg/mL

Question: Which solubility kinetic does the source give for `CC1(C)CC(NC(=O)c2cc(S(=O)(=O)N3CCOCC3)ccc2Cl)CC(C)(C)N1.Cl` here?
Answer: > 72.1 µg/mL

Question: Which solubility kinetic does the source give for `O=C(NN1CCOCC1)c1ccccc1F` here?
Answer: > 33.6 µg/mL

Question: Which solubility kinetic does the source give for `COc1ccc(-c2noc(CN(C)Cc3ccccc3)n2)cc1` here?
Answer: 5.7 µg/mL (≈ 18.4 µM)

Question: With `O=C(c1c(F)cccc1F)N1CCN(CCOc2ccccc2)CC1` as the compound, how does the solubility kinetic read?
Answer: > 52 µg/mL

Question: For `O=C(O)c1cncc(C#Cc2ccccc2)c1`, which solubility kinetic is on record?
Answer: > 33.5 µg/mL

Question: For `Cc1cc2oc(=O)sc2cc1NS(=O)(=O)c1ccccc1`, which solubility kinetic is on record?
Answer: 42.8 µg/mL (≈ 133 µM)

Question: Which solubility kinetic does the source give for `O=C(CN1CCN(S(=O)(=O)c2ccccc2F)CC1)N1CCc2ccccc2C1` here?
Answer: 12.8 µg/mL (≈ 30.7 µM)

Question: Which solubility kinetic does the source give for `O=C(CSc1ccc(Cl)cc1)NC(=O)c1ccccc1` here?
Answer: 6.4 µg/mL (≈ 20.9 µM)

Question: Which solubility kinetic does the source give for `CCOc1ccccc1NC(=O)Nc1ccc(CC#N)cc1` here?
Answer: 37.8 µg/mL (≈ 128 µM)

Question: For `Nc1nc(-c2cccs2)c(-c2cccs2)s1`, which solubility kinetic is on record?
Answer: 5.8 µg/mL (≈ 21.9 µM)

Question: With `Oc1c(Cl)cc(Cl)c2c1NCCC2` as the compound, how does the solubility kinetic read?
Answer: 7 µg/mL (≈ 32.1 µM)

Question: For `O=[N+]([O-])c1ccc2nc(-c3cccnc3)[nH]c2c1`, which solubility kinetic is on record?
Answer: > 36 µg/mL

Question: Which solubility kinetic does the source give for `COc1cc(C(C)=O)ccc1OCC(=O)N1CCc2ccccc2C1` here?
Answer: 43.9 µg/mL (≈ 129 µM)

Question: For `COc1ccccc1CNC(=O)c1ccc(NC(=O)CC2SC(N3CCCC3)=NC2=O)cc1` (stereo not given), which solubility kinetic is on record?
Answer: 9.4 µg/mL (≈ 20.1 µM)

Question: Which solubility kinetic does the source give for `COc1ccc2nccnc2c1[N+](=O)[O-]` here?
Answer: > 30.8 µg/mL

Question: For `O=C1c2ccccc2-c2ccc(C(=O)N3CCCCC3)cc21`, which solubility kinetic is on record?
Answer: 19 µg/mL (≈ 65.2 µM)

Question: Which solubility kinetic does the source give for `Cc1cccc(NC(=S)NC(=O)c2ccc(-c3ccccc3)cc2)n1` here?
Answer: 0.5 µg/mL (≈ 1.44 µM)

Question: Which solubility kinetic does the source give for `COc1ccccc1C(=O)NCC(=O)Nc1cccnc1` here?
Answer: > 42.8 µg/mL

Question: Which solubility kinetic does the source give for `COc1cc(C)c(CN2CCC(Cc3ccccc3)CC2)cc1C` here?
Answer: 26.4 µg/mL (≈ 81.6 µM)

Question: With `CCN1C(=O)C(=O)N(CC(=O)Nc2cc(C)ccc2C)C1=O` as the compound, how does the solubility kinetic read?
Answer: > 45.5 µg/mL

Question: With `CC(=O)Nc1ccc(NC(=O)CC(C)n2ccnc2)cc1` (stereo not given) as the compound, how does the solubility kinetic read?
Answer: 40.8 µg/mL (≈ 142 µM)

Question: With `O=C(NCCCNC(=O)c1ccco1)c1cccc(F)c1` as the compound, how does the solubility kinetic read?
Answer: > 43.5 µg/mL

Question: With `CCNC(=S)Nc1ccc(N2CCCCC2)cc1` as the compound, how does the solubility kinetic read?
Answer: > 39.5 µg/mL

Question: Which solubility kinetic does the source give for `O=C(Nc1nccs1)c1ccc(Br)cc1` here?
Answer: 2.2 µg/mL (≈ 7.77 µM)

Question: For `Cc1cc(=O)cc(C)n1-c1ccc(Cl)cc1`, which solubility kinetic is on record?
Answer: 34.8 µg/mL (≈ 149 µM)

Question: For `CCOC(=O)C1=C(c2ccccc2)NC(=O)NC1c1cccc(OC)c1OC` (stereo not given), which solubility kinetic is on record?
Answer: > 57.4 µg/mL

Question: Which solubility kinetic does the source give for `Cc1ccccc1C(=O)NC(=S)NCc1ccccc1` here?
Answer: < 0.3 µg/mL

Question: For `CC(C)(C)NC(=O)NC(=O)CN1CCCc2ccccc21`, which solubility kinetic is on record?
Answer: 11.9 µg/mL (≈ 41.1 µM)

Question: Which solubility kinetic does the source give for `COc1ccc(C(C)=O)cc1CSC(=N)N.Cl` here?
Answer: > 41.2 µg/mL

Question: For `Cc1ccc(OCC(=O)N(Cc2ccccc2)c2ccccn2)cc1`, which solubility kinetic is on record?
Answer: 49.6 µg/mL (≈ 149 µM)

Question: Which solubility kinetic does the source give for `CCC1C(=O)NCCN1Cc1nc(-c2ccc(C)s2)oc1C` (stereo not given) here?
Answer: 39.3 µg/mL (≈ 123 µM)

Question: Which solubility kinetic does the source give for `CC(=O)Nc1nc2c(s1)C(=O)NCC(C)(C)C2` here?
Answer: > 38 µg/mL

Question: For `CCc1ccccc1NC(=O)c1cc(C)no1`, which solubility kinetic is on record?
Answer: > 34.5 µg/mL

Question: With `NC(=O)NC(=O)CN1c2cccc3cccc(c23)S1(=O)=O` as the compound, how does the solubility kinetic read?
Answer: 3.7 µg/mL (≈ 12.1 µM)

Question: For `CC(O)CNc1ccc([N+](=O)[O-])cc1S(=O)(=O)N1CCOCC1` (stereo not given), which solubility kinetic is on record?
Answer: > 51.8 µg/mL

Question: For `O=C(OCC(=O)N1CCCC1)c1ccc(O)cc1`, which solubility kinetic is on record?
Answer: > 37.4 µg/mL

Question: Which solubility kinetic does the source give for `O=C(Nc1cccc(S(=O)(=O)N2CCCCC2)c1)c1cncc(Br)c1` here?
Answer: 31.6 µg/mL (≈ 74.5 µM)

Question: Which solubility kinetic does the source give for `COc1ccc(CN(C)C(=O)Cc2ccsc2)c(OC)c1OC` here?
Answer: 35.2 µg/mL (≈ 105 µM)

Question: With `O=C(O)Cc1sc(NC2CCCCC2)nc1-c1ccc(Cl)cc1` as the compound, how does the solubility kinetic read?
Answer: > 52.6 µg/mL

Question: Which solubility kinetic does the source give for `CCOC(=O)N1CCN(c2cc(=O)n(C)c(=O)n2C)CC1` here?
Answer: > 44.4 µg/mL

Question: Which solubility kinetic does the source give for `c1ccc(CCNc2nc(-c3ccncc3)nc3ccccc23)cc1` here?
Answer: 0.3 µg/mL (≈ 0.919 µM)

Question: Which solubility kinetic does the source give for `Cc1cccc(NC(=S)NCCc2ccc(F)cc2)c1C` here?
Answer: 2.8 µg/mL (≈ 9.26 µM)

Question: With `COC(=O)c1ccc(C(=O)N(Cc2ccccc2)c2ccccc2)cc1` as the compound, how does the solubility kinetic read?
Answer: 10.7 µg/mL (≈ 31 µM)

Question: Which solubility kinetic does the source give for `O=[N+]([O-])c1cc(Cl)ccc1Sc1ccccn1` here?
Answer: 23.3 µg/mL (≈ 87.4 µM)

Question: Which solubility kinetic does the source give for `O=C(CN1C(=O)c2ccccc2C1=O)NCc1ccc(C(=O)O)cc1` here?
Answer: > 50.7 µg/mL

Question: Which solubility kinetic does the source give for `COc1ccccc1N(C)S(=O)(=O)c1ccc(C(=O)Nc2cc(F)ccc2C)cc1` here?
Answer: 7.5 µg/mL (≈ 17.5 µM)

Question: For `COc1ccc(C(=O)COc2ccccc2C#N)cc1`, which solubility kinetic is on record?
Answer: 3.6 µg/mL (≈ 13.5 µM)

Question: With `O=C(CNC(=O)c1ccc(Cl)cc1)NC1CCCCC1` as the compound, how does the solubility kinetic read?
Answer: 6.6 µg/mL (≈ 22.4 µM)

Question: With `CC1(C)CC(=O)N(c2cc(Cl)cc(Cl)c2)C(=O)C1` as the compound, how does the solubility kinetic read?
Answer: 11.7 µg/mL (≈ 40.9 µM)

Question: With `COc1ccc(C(=O)Nc2nc3ccccc3s2)cc1` as the compound, how does the solubility kinetic read?
Answer: < 0.3 µg/mL

Question: For `CCCN(CC(=O)Nc1ccccc1OC)C(=O)CC1CCCC1`, which solubility kinetic is on record?
Answer: > 49.9 µg/mL

Question: With `CCOC(=O)c1c(N)c2cc([N+](=O)[O-])ccc2n1C` as the compound, how does the solubility kinetic read?
Answer: < 0.2 µg/mL
